Laboratory results taken from PubChem BioAssay (NCI).
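Grown in 96-well plates, cells were treated for 48 hours with each compound at five concentrations. Insufficient inhibition: endpoint recorded as highest concentration tested. At the GI50, growth is halved. The concentration for full growth arrest is given as TGI.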

Columns and labels:
Assay in all cases: NCI tumour cell line growth inhibition, 48 h
HCC-2998 colon = test system: HCC-2998 colon
COLO 205 colon = test system: COLO 205 colon
MCF7 breast = test system: MCF7 breast
OVCAR-5 ovarian = test system: OVCAR-5 ovarian
KM12 colon = test system: KM12 colon
SN12C renal = test system: SN12C renal
MALME-3M melanoma = test system: MALME-3M melanoma
SF-295 CNS = test system: SF-295 CNS
M14 melanoma = test system: M14 melanoma
SF-539 CNS = test system: SF-539 CNS
CAKI-1 renal = test system: CAKI-1 renal
HS 578T breast = test system: HS 578T breast

Structure (SMILES)	TGI (HCC-2998 colon)	TGI (COLO 205 colon)	TGI (MCF7 breast)	TGI (OVCAR-5 ovarian)	TGI (KM12 colon)	TGI (SN12C renal)	TGI (MALME-3M melanoma)	TGI (SF-295 CNS)	TGI (M14 melanoma)	TGI (SF-539 CNS)	TGI (CAKI-1 renal)	TGI (HS 578T breast)	GI50 (HS 578T breast)	GI50 (HCC-2998 colon)	GI50 (MCF7 breast)	GI50 (OVCAR-5 ovarian)	GI50 (SF-295 CNS)	GI50 (SF-539 CNS)	GI50 (CAKI-1 renal)
CCC(C)C(NC(=O)c1c2ccccc2nc2ccccc12)C(=O)O (configuration not stated)	> 100 µM	> 100 µM	> 100 µM	> 100 µM	> 100 µM	> 100 µM	> 100 µM	> 100 µM	> 100 µM	> 100 µM	> 100 µM	–	–	–	–	–	–	–	–
CCCCCCCCCCCCCCCCNc1ccc2c(c1)OCCOCCOCCOCCO2	–	3.18 µM	13.2 µM	14.2 µM	4.84 µM	10.5 µM	13.6 µM	7.94 µM	13.5 µM	9.43 µM	13.6 µM	9.1 µM	–	–	–	–	–	–	–
Cc1ccc(Cc2nn(C)c(=O)n2-n2cccc2)cc1	> 100 µM	> 100 µM	> 100 µM	> 100 µM	> 100 µM	> 100 µM	> 100 µM	> 100 µM	> 100 µM	–	> 100 µM	> 100 µM	–	–	–	–	–	–	–
O=C1NCC2(CCNCC2)N1	> 100 µM	> 100 µM	> 100 µM	> 100 µM	> 100 µM	> 100 µM	> 100 µM	> 100 µM	> 100 µM	> 100 µM	–	> 100 µM	–	–	–	–	–	–	–
O=C1CSC(c2ccccc2[N+](=O)[O-])N1c1ccc(-n2c(-c3ccccc3)nc3ccccc3c2=O)cc1 (configuration not stated)	> 100 µM	> 100 µM	> 100 µM	> 100 µM	> 100 µM	> 100 µM	> 100 µM	64.3 µM	–	> 100 µM	> 100 µM	54.8 µM	–	–	–	–	–	–	–
C=CCOCn1ccc(NC(=O)c2ccccc2)nc1=O	> 100 µM	> 100 µM	> 100 µM	–	> 100 µM	> 100 µM	> 100 µM	> 100 µM	> 100 µM	> 100 µM	> 100 µM	> 100 µM	–	–	–	–	–	–	–
COC(=O)CCSC1=CC(=O)c2nc3ccccc3c3ccnc1c23	27.6 µM	> 47 µM	> 50.2 µM	> 71.4 µM	34.8 µM	40.7 µM	–	> 100 µM	47.2 µM	29.8 µM	42.5 µM	67.8 µM	–	–	–	–	–	–	–
COC(=O)c1c2c(cc3c1CC1(C3)Cc3ccc4c(c3C1=O)CCC4)CCC2 (configuration not stated)	40.1 µM	–	> 66.7 µM	> 100 µM	> 100 µM	> 100 µM	> 45.5 µM	> 28.8 µM	18.6 µM	9.36 µM	21.2 µM	6.62 µM	–	–	–	–	–	–	–
C=CCN1C[C@@H](C)N([C@@H](c2ccccc2)c2ccc(C(=O)N(CC)CC)cc2)C[C@@H]1C	–	> 100 µM	> 100 µM	> 100 µM	> 100 µM	> 100 µM	> 100 µM	> 100 µM	> 100 µM	> 100 µM	> 100 µM	> 100 µM	–	–	–	–	–	–	–
COc1ccc(/C(Cl)=C(\CNc2ccccn2)c2ccccc2)cc1OC	> 100 µM	> 100 µM	–	> 100 µM	> 100 µM	> 100 µM	> 100 µM	> 100 µM	–	> 100 µM	> 100 µM	> 100 µM	–	–	–	–	–	–	–
OCCN1CCN(c2nc(Nc3ccc(-c4nc5ccccc5[nH]4)cc3)c3cn[nH]c3n2)CC1	3.33 µM	–	3.54 µM	3.26 µM	–	–	–	3.31 µM	–	3.08 µM	3.13 µM	5.33 µM	2.15 µM	1.74 µM	1.59 µM	1.83 µM	1.88 µM	1.7 µM	1.72 µM
C[N+]1(CCCC[N+]2(C)CCCCCCC2)CCCCCCC1	–	–	–	> 100 µM	> 100 µM	> 100 µM	> 100 µM	> 100 µM	> 100 µM	–	> 100 µM	60.4 µM	–	–	–	–	–	–	–
N#Cc1c(-c2ccccc2)c(C#N)c(=S)n(C2OCC(O)C(O)C2O)c1N (configuration not stated)	> 100 µM	–	> 100 µM	> 100 µM	> 100 µM	> 100 µM	> 100 µM	> 100 µM	> 100 µM	> 100 µM	> 100 µM	> 100 µM	–	–	–	–	–	–	–
COc1ccc2[nH]cc(CN3CCC(CO)(c4ccccc4)CC3)c2c1	46.2 µM	40.3 µM	37.9 µM	> 100 µM	35.4 µM	> 100 µM	62.3 µM	39.8 µM	32.3 µM	–	–	70.9 µM	–	–	–	–	–	–	–
O=c1c2ccccc2n2n1Cc1ccccc1C2	> 100 µM	> 100 µM	> 100 µM	–	> 100 µM	> 100 µM	> 100 µM	> 100 µM	–	> 100 µM	> 100 µM	> 100 µM	–	–	–	–	–	–	–
Cc1ccc(C(=O)c2[nH]c(Nc3ccc(Cl)cc3)c(C(=S)Nc3ccccc3)c2N)cc1	5.31 µM	2.84 µM	33.6 µM	40.9 µM	18.8 µM	27.4 µM	19.8 µM	5.27 µM	35.8 µM	17.7 µM	30.6 µM	–	–	–	–	–	–	–	–
CCOC(=O)NC(C(C(=O)OCC)C(=O)OCC)(C(F)(F)F)C(F)(F)F	–	> 100 µM	> 100 µM	> 100 µM	> 100 µM	> 100 µM	> 100 µM	> 100 µM	> 100 µM	> 100 µM	> 100 µM	> 100 µM	–	–	–	–	–	–	–
COCN1C(=O)[C@@H]2CCCN2C(=O)c2cc(Cl)ccc21	> 100 µM	> 100 µM	> 100 µM	> 100 µM	> 100 µM	> 100 µM	> 100 µM	> 100 µM	> 100 µM	–	> 100 µM	> 100 µM	–	–	–	–	–	–	–
Cc1ccc(-c2n[nH]c(=O)n2N2C(=O)C=CC2=O)cc1	> 100 µM	> 100 µM	> 100 µM	> 100 µM	–	> 100 µM	> 100 µM	> 100 µM	> 100 µM	> 100 µM	> 100 µM	> 100 µM	–	–	–	–	–	–	–
C=CCN(c1cc(OCc2ccccc2)c2c(c1)c(C)cn2S(=O)(=O)c1ccccc1)S(C)(=O)=O	> 100 µM	> 100 µM	–	> 100 µM	> 100 µM	> 100 µM	> 100 µM	> 100 µM	> 100 µM	> 100 µM	> 100 µM	> 100 µM	–	–	–	–	–	–	–
